Measured values taken from ChEMBL document CHEMBL2074401, “Difloxacin reverses multidrug resistance in HL-60/AR cells that overexpress the multidrug resistance-related protein (MRP) gene” (Oncol Res, 1995).

Molecular target: Multidrug resistance-associated protein 1 (Homo sapiens, UniProt P33527)
Experiment: TP_TRANSPORTER: increase in Daunorubicin, Adriamycin and Vincristine intracellular accumulation (Daunorubicin: 4 ug/mL, Difloxacin: 62.5 uM) in HL-60/AR cells
Type: functional, cell-based

Sequence of Multidrug resistance-associated protein 1 (P33527 whole entry): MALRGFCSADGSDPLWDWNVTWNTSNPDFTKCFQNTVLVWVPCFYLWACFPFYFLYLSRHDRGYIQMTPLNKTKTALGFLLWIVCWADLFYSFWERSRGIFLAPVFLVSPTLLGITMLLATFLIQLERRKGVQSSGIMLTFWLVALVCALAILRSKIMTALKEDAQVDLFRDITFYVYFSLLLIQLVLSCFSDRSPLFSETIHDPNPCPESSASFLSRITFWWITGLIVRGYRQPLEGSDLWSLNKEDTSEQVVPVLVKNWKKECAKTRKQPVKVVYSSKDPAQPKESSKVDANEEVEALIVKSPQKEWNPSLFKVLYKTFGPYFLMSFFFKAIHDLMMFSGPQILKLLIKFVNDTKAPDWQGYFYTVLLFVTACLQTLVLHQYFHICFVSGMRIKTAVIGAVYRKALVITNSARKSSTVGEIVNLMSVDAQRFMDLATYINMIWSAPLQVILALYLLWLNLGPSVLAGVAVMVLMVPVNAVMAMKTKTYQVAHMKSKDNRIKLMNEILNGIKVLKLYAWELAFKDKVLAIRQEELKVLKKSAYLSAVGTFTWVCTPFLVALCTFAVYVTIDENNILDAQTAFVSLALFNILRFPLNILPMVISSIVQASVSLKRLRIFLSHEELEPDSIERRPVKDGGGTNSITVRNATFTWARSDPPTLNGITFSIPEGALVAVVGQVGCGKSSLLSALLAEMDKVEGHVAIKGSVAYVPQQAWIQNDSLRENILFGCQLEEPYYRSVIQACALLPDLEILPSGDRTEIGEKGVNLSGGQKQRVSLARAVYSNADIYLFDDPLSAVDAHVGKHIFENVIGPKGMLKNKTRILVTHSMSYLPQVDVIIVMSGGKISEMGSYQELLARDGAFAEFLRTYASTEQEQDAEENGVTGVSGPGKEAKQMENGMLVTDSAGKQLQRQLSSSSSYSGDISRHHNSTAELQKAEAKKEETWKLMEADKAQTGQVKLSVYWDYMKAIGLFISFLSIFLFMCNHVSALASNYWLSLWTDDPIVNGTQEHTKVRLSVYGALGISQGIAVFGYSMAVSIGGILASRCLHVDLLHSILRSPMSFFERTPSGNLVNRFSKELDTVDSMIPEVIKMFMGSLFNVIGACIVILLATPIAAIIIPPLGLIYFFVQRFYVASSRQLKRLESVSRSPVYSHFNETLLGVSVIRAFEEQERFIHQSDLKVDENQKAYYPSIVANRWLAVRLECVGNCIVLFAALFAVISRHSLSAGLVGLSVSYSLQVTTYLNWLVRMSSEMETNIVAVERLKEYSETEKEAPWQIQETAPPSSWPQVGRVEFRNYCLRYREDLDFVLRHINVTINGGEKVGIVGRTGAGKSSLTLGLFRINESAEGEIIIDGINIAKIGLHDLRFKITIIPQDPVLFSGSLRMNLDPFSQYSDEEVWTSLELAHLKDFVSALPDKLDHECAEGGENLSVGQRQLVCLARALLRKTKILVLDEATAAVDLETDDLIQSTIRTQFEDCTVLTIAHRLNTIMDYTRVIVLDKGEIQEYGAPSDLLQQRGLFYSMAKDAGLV

Activity: inhibitor [1.3 to 2.9-fold]
Structure (SMILES): CN1CCN(c2cc3c(cc2F)c(=O)c(C(=O)O)cn3-c2ccc(F)cc2)CC1 [DIFLOXACIN]
